Laboratory results: patent US11458077B2, “Two-phase cosmetic composition comprising a 4-(3-alkoxy-4-hydroxyphenyl)alkyl ketone” (L'OREAL, priority 2017, dated 2022)

Assay: Solubility of the ketone compound
Type: physicochemical

solubility in glycerol (glycerol): very low solubility
solubility in water (water): very low solubility
SMILES: CCOc1cc(CCC(C)=O)ccc1O [ketone compound, 4-(3-Ethoxy-4-hydroxyphenyl)butan-2-one]
